Common to all, as to format: biochemical
In experiment [1] the target is T1, rhPSMA (Homo sapiens (Human), UniProt Q04609). The experiment is described as follows: PSMA inhibition assay (NAAG hydrolysis, Amplex Red). The note with it: for IC50: mean of triplicate experiments ± SD.
The target in experiment [2] is T1, rhPSMA. In words: Measurement of PSMA Km. The note with it: NAAG substrate, 40 μM-312.5 nM, room temperature 15 min. How it is done: A 10 mM solution of N-acetyl-aspartylglutamate (NAAG) in 40 mM NaOH, and was then diluted in Reaction Buffer (100 mM Tris-HCl, pH 7.5) to a final NAAG concentration of 40 µM. The solution was added to a 384 well plate (20 µL per well). […] Reaction Buffer (20 µL) was added to the Km control series. The plate was incubated at room temperature for 15 min, and then heated to 95° C. for 3 minutes. The plate was allowed to cool to room temperature, and glutamic acid levels were measured using a commercially available Amplex®—Red Glutamic Acid/Glutamate Oxidase Assay Kit (Invitrogen). Fluorescence intensities were measured using a Synergy 2 multiwell plate reader (Biotek), fitted with excitation and emission filters of 545 nm and 590 nm, respectively. […] This value is consistent with that reported in the literature^7 and was employed in subsequent Ki calculations (see below).

The target of experiment [3] is human recombinant PSMA (rhPSMA) (Homo sapiens (Human), UniProt Q04609). The experiment is described as follows: NAALADase inhibition experiments (Amplex Red glutamate release). The note with it: human recombinant PSMA (R&D Research); average of three runs ± standard deviation. The procedure: A 10 mM stock solution of N-acetyl-aspartyl-glutamate (NAAG) in 40 mM NaOH was diluted to 40 μM in Tris buffer (0.1M Tris-HCl, pH=7.5), and was added to 384 well plate (25 μl per well). […] For IC50 measurements, solutions of recruiting molecule 3 in water (2 μL per well, dilution series) were added to wells. For all other wells, 2 μL of water was added. To initiate reactions, rhPSMA (R&D research) diluted in Tris buffer (20 pg/mL), was added to each well (25 μl per well). For negative controls, Tris buffer was added (25 μl per well). The plate was covered and incubated for 15 minutes, at which time the protein was deactivated by heating the plate to 95° C. for 3 minutes. After plate was allowed to cool, glutamic acid release was visualized using an Amplex®-Red glutamic acid/glutamate oxidase assay kit (Invitrogen). Km and IC50 values were calculated using graphpad prism software, and Ki was calculated from these values using the Cheng-Prusoff Equation. This process was run in triplicate, and is reported in the manuscript as the average of three runs±standard deviation.
human recombinant PSMA (rhPSMA), sequence (Q04609 44-750 limits assumed): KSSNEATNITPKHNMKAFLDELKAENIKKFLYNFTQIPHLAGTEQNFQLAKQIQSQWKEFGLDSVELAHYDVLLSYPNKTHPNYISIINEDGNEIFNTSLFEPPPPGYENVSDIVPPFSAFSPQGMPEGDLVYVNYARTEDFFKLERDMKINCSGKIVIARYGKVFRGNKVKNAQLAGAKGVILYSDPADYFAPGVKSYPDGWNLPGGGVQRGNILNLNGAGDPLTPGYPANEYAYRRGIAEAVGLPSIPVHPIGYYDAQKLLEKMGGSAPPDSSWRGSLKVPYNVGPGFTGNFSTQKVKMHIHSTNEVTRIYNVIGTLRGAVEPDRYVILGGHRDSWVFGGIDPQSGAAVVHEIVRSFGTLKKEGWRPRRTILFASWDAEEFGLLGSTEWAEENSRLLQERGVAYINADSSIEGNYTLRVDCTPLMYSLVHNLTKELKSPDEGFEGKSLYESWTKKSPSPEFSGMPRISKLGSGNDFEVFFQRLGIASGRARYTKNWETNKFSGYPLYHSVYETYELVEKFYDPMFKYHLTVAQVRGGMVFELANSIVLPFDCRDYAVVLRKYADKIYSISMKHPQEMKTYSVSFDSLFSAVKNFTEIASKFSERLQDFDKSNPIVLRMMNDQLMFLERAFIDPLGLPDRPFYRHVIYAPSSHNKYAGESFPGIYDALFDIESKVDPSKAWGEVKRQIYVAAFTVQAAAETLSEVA

The mark [4] stands for this setting: Table 1, from IC50 and Km via Cheng-Prusoff equation.
Where [5] appears, read: Table 2, Cheng-Prusoff equation, Km 925 nM.

Residues, ends and D or L forms follow the SMILES beside them.

As a reminder, the Ki is the equilibrium dissociation constant of an inhibitor or competing ligand from its target. What is called IC50 is the concentration at which inhibition is half-maximal. A higher IC50 goes with weaker potency. One may read the Km as the concentration of substrate that gives half-maximal velocity.

T1 sequence (Q04609 44-750): as the sequence (Q04609 44-750 limits assumed) above

For `COCCOCCOCc1cn(CCCC[C@H](NC(=O)N[C@@H](CCC(=O)O)C(=O)O)C(=O)O)nn1` [9, MeO-P2, (S)-2-(3-((S)-1-carboxy-5-(4-((2-(2-methoxyethoxy)ethoxy)methyl)-1H-1,2,3-triazol-1-yl)pentyl)ureido)pentanedioic acid], the Ki in experiment [1] (setting [4]) turned out to be 1.81 ± 0.42 nM. In addition, half-maximal inhibition in experiment [1] (Table 1, 20 μM NAAG) (IC50) was put at 40.8 ± 9.4 nM.

As to `O=C(O)CC[C@H](NC(=O)N[C@@H](CCCCn1cc(COCCOCCOCCOCCOCCOCCNc2ccc([N+](=O)[O-])cc2[N+](=O)[O-])nn1)C(=O)O)C(=O)O` [5, ARM-P6], the Ki in experiment [1] (setting [4]) turned out to be 0.101 ± 0.027 nM. For the same compound, the 50% inhibitory concentration (IC50) in experiment [1] (Table 1, 20 μM NAAG) is 2.29 ± 0.6 nM.

Turning to `COCCOCCOCCOCCOCCOCCOCCOCCOCCOCCOCCOCCOCc1cn(CCCC[C@H](NC(=O)N[C@@H](CCC(=O)O)C(=O)O)C(=O)O)nn1` [12, MeO-P12, (S)-2-(3-((S)-5-(4-2,5,8,11,14,17,20,23,26,29,32,35,38-tridecaoxanonatriacontyl-1H-1,2,3-triazol-1-yl)-1-carboxypentyl)ureido)pentanedioic acid], the inhibitory constant (Ki) in experiment [1] (setting [4]) came out at 7.3 ± 2.6 nM. Besides, half-maximal inhibition in experiment [1] (Table 1, 20 μM NAAG) (IC50) was put at 165 ± 58.9 nM.

In experiment [1] (setting [4]), `O=C(O)CC[C@H](NC(=O)N[C@@H](CCCCn1cc(CNc2ccc([N+](=O)[O-])cc2[N+](=O)[O-])nn1)C(=O)O)C(=O)O` [1, ARM-P0, (S)-2-(3-((S)-1-carboxy-5-(4-((2,4-dinitrophenylamino)methyl)-1H-1,2,3-triazol-1-yl)pentyl)ureido)pentanedioic acid] gave a Ki of 0.078 ± 0.018 nM. Besides, inhibition in experiment [1] (Table 1, 20 μM NAAG) was half-maximal at 1.76 ± 0.41 nM (IC50).

Take `O=C(O)CC[C@H](NC(=O)N[C@@H](CCCCn1cc(COCCOCCNc2ccccc2)nn1)C(=O)O)C(=O)O` [Compound 15, (S)-2-(3-((S)-1-carboxy-5-(4-((2-(2-(phenylamino)ethoxy)ethoxy)methyl)-1H-1,2,3-triazol-1-yl)pentyl)ureido)pentanedioic acid]: the results for the inhibitory constant (Ki) in experiment [1] (setting [5]) and in experiment [1] (Table 2 analogues) were 0.73 ± 0.28 nM and 0.73 nM, respectively. The IC50 in experiment [1] (Table 2) was found to be 16.6 ± 6.3 nM.

For `COc1ccc(NCCOCCOCc2cn(CCCC[C@H](NC(=O)N[C@@H](CCC(=O)O)C(=O)O)C(=O)O)nn2)cc1` [Compound 16, (S)-2-(3-((S)-1-carboxy-5-(4-((2-(2-(4-methoxyphenylamino)ethoxy)ethoxy)methyl)-1H-1,2,3-triazol-1-yl)pentyl)ureido)pentanedioic acid], the Ki in experiment [1] (setting [5]) and in experiment [1] (Table 2 analogues) was 0.97 nM each time. The 50% inhibitory concentration (IC50) in experiment [1] (Table 2) turned out to be 21.9 ± 9.9 nM.

As to `O=C(O)CC[C@H](NC(=O)N[C@@H](CCCCn1cc(COCCOCCOCCOCCOCCOCCOCCOCCOCCOCCOCCOCCNc2ccc([N+](=O)[O-])cc2[N+](=O)[O-])nn1)C(=O)O)C(=O)O` [7, ARM-P12], in experiment [1] (setting [4]), the affinity corresponds to a Ki of 1.65 ± 0.72 nM. In experiment [1] (Table 1, 20 μM NAAG), this compound returned an IC50 of 37.3 ± 16.2 nM.

Regarding `O=C(O)CC[C@H](NC(=O)N[C@@H](CCCCn1cc(COCCOCCNc2ccccc2[N+](=O)[O-])nn1)C(=O)O)C(=O)O` [Compound 13, (S)-2-(3-((S)-1-carboxy-5-(4-((2-(2-(2-nitrophenylamino)ethoxy)ethoxy)methyl)-1H-1,2,3-triazol-1-yl)pentyl)ureido)pentanedioic acid], the inhibitory constant (Ki) in experiment [1] (setting [5]) is 0.078 ± 0.007 nM; in experiment [1] (Table 2 analogues) it was 0.06 nM. Further, half-maximal inhibition in experiment [1] (Table 2) (IC50) was put at 1.78 ± 0.15 nM.

Consider `O=C(O)CC[C@H](NC(=O)N[C@@H](CCCCn1cc(COCCOCCNc2ccc([N+](=O)[O-])cc2)nn1)C(=O)O)C(=O)O` [Compound 14, (S)-2-(3((S)-1-carboxy-5-(4-((2-(2-(4-nitrophenylamino)ethoxy)ethoxy)methyl)-1H-1,2,3-triazol-1-yl)pentyl)ureido)pentanedioic acid], for which the inhibition constant (Ki) in experiment [1] (setting [5]) came out at 0.06 ± 0.008 nM; in experiment [1] (Table 2 analogues), 0.078 nM. In addition, the IC50 in experiment [1] (Table 2) amounted to 1.36 ± 0.18 nM.

For the compound `COCCOCCOCCOCCOCCOCCOCCOCCOCc1cn(CCCC[C@H](NC(=O)N[C@@H](CCC(=O)O)C(=O)O)C(=O)O)nn1` [11, MeO-P8, (S)-2-(3-((S)-5-(4-2,5,8,11,14,17,20,23,26-nonaoxaheptacosyl-1H-1,2,3-triazol-1-yl)-1-carboxypentyl)ureido)pentanedioic acid], affinity in experiment [1] (setting [4]) was put at a Ki of 5.79 ± 2.54 nM. This compound gave an IC50 in experiment [1] (Table 1, 20 μM NAAG) of 131 ± 57.6 nM.

In turn, `COCc1cn(CCCC[C@H](NC(=O)N[C@@H](CCC(=O)O)C(=O)O)C(=O)O)nn1` [8, MeO-P0, (S)-2-(3-((S)-1-carboxy-5-(4-(methoxymethyl)-1H-1,2,3-triazol-1-yl)pentyl)ureido)pentanedioic acid] came in with an inhibitory constant (Ki) in experiment [1] (setting [4]) of 1.35 ± 0.54 nM. Further, 30.5 ± 12.1 nM corresponded to half-maximal inhibition in experiment [1] (Table 1, 20 μM NAAG) (IC50).

In the case of `O=C(O)CC[C@H](NC(=O)N[C@@H](CCCCn1cc(COCCOCCNC2CCCCC2)nn1)C(=O)O)C(=O)O` [Compound 17, (S)-2-(3-((S)-1-carboxy-5-(4-((2-(2-(cyclohexylamino)ethoxy)ethoxy)methyl)-1H-1,2,3-triazol-1-yl)pentyl)ureido)pentanedioic acid], the Ki in experiment [1] (setting [5]) was 15.1 nM. Besides, the IC50 in experiment [1] (Table 2) turned out to be 342 ± 170 nM.

Consider `CC(=O)N[C@@H](CC(=O)O)C(=O)N[C@@H](CCC(=O)O)C(=O)O` [NAAG, N-acetyl-aspartylglutamate] (Ac-Asp-Glu-OH), for which the Michaelis-Menten constant (Km) in experiment [2] is 0.925 µM.

`O=C(O)CC[C@H](NC(=O)N[C@@H](CCCCn1cc(COCCNc2ccc([N+](=O)[O-])cc2[N+](=O)[O-])nn1)C(=O)O)C(=O)O` [2, ARM-P1, (S)-2-(3-((S)-1-carboxy-5-(4-((2-(2,4-dinitrophenylamino)ethoxy)methyl)-1H-1,2,3-triazol-1-yl)pentyl)ureido)pentanedioic acid] gave an inhibitory constant (Ki) in experiment [1] (setting [4]) of 0.047 ± 0.005 nM. Moreover, in experiment [1] (Table 1, 20 μM NAAG), 1.05 ± 0.11 nM corresponded to half-maximal inhibition (IC50).

Turning to `CC(C)(C)OC(=O)CC[C@H](NC(=O)N[C@@H](CCCCn1cc(COCCOCCOCCOCCNc2ccc([N+](=O)[O-])cc2[N+](=O)[O-])nn1)C(=O)OC(C)(C)C)C(=O)OC(C)(C)C` [PC-ARM (3), (S)-di-tert-butyl 2-(3-((S)-1-tert-butoxy-6-(4-(13-(2,4-dinitrophenylamino)-2,5,8,11-tetraoxamidecyl)-1H-1,2,3-triazol-1-yl)-1-oxohexan-2-yl)ureido)pentanedioate], in experiment [3], the inhibition constant Ki was found to be 0.9 ± 0.3 nM.

(Values after patent US9296708B2, “Chimeric small molecules for the recruitment of antibodies to cancer cells” (YALE UNIVERSITY, priority 2008, dated 2016).)
